Measurements published in patent US6043219A, “Broad spectrum chemotherapeutic peptide” (Kansas State University Research Foundation, priority 1997, dated 2000).
Entries after “also recorded” stand apart in the source; their conditions may differ.

How the values were obtained:
[1] = Stability of BacR1: residual activity by bactericidal assay (plate method) after treatments; format: physicochemical
Experimental: 7A, p. 315-422. […] Appl. Microbiol. 21:943].
The stability of BacR1 was assessed by determining the activity of BacR1 by bactericidal assay (plate method) after exposure to various temperatures, environmental conditions, and enzymes (Table 2). Solutions of finally purified BacR1 at a concentration of 640 AU/ml were used in these stability experiments. BacR1 samples were held at various temperatures for 15 min, were held at pHs ranging from 3 to 11 at room temperature for 1 h, were incubated in 6M urea at room temperature for 1 h, or were incubated with 1 mg/ml of enzyme at room temperature for 1 h.

[2] = Preparative isoelectric focusing (Rotofor); format: physicochemical; conditions: ammonium sulfate-precipitated culture supernatant, ampholytes pH 3-10, fractions 15 through 17
Experimental: Isoelectric focusing of ammonium sulfate-precipitated culture supernatants of S. aureus UT0007 was carried out on a Rotofor isoelectric focusing cell (Bio-Rad, Richmond, Calif.) in order to define certain biophysical characteristics of BacR1. Concentrated culture supernatants were dialyzed overnight in 3,500 molecular-weight-cutoff dialysis tubing (SpectraPor, Los Angeles, Calif.) against 4 L distilled water at 4° C. The dialyzed sample was centrifuged at 9,000× g for 10 min at 4° C. to remove insoluble material, and the supernatant was diluted to a total volume of 55 ml with distilled water. Ampholytes (pH 3-10) (Fisher, St. Louis, Mo.) were added to a final concentration of 1% and the sample was loaded into the Rotofor cell for focusing at 12 W constant power at 4° C. The initial conditions were approximately 600 V and 35 mA; upon equilibrium the values were approximately 1200 V and 15 mA. Twenty individual fractions were harvested and the total protein, pH, and BacR1 activity for each fraction was determined.

C. renale [3] = test: Effect of BacR1 on viability of C. renale (A550 and viable cell counts over time); format: cell-based, Corynebacterium renale
Experimental: FIG. 9 includes a pair of graphs illustrating the effect of BacR1 on the viability C. renale; the A550 of a culture of control cells (-.circle-solid.-) and a culture of cells incubated with BacR1 at a concentration of 100 AU/ml (-.box-solid.-) was measured at respective times;
FIG. 10 includes a pair of graphs illustrating the effect of BacR1 on the viability C. renale; viable cell counts for a culture of control cells (-.circle-solid.-) and a culture of cells incubated with BacR1 at a concentration of 100 AU/ml (-.box-solid.-) were determined at respective times.
BacR1 kills C. renale in a dose-dependent fashion, with a MIC50 of approximately 6 AU/ml (FIG. 8). Furthermore, the killing is rapid in the absence of cell lysis as evidenced in FIGS. 9 and 10. No viable cells were detected after 120 min of exposure to BacR1. […] Such recovery would be observed with a bacteriostatic agent.

C. renale [4] = test: SDS-PAGE bioassay (gel overlaid with top agar containing C. renale); format: cell-based, Corynebacterium renale; conditions: finally purified BacR1
Description: Purified preparations of BacR1 were subjected to electrophoretic analysis by SDS-PAGE. After electrophoresis, gels were either silver stained (Blum et al. 1987. Electrophoresis 8:93-99) or bioassayed using a slight modification of the method of Bhunia et al. (1987. J. Indust. Microbiol. 2:319-322). Briefly, each protein sample was electrophoresed in a 10-20% SDS-PAGE gradient gel (Bio-Rad, Richmond, Calif.) as previously described (Laemmli et al. 1970. Nature. 227:680-685). After electrophoresis, SDS was removed by soaking the gel in 20% isopropanol-10% acetic acid in water for 2 h, followed by rinsing in distilled water for 4 h. The gel was then placed on a BHT-80 agar plate and overlaid with BHT-80 top agar (0.7% agar) containing C. renale. After incubation at 37° C. overnight, the plate/gel combination was examined for zones of growth inhibition.

Bordetella brochoseptica = test: Inhibitory spectrum, bactericidal assay (plate method); format: cell-based; conditions: B. bronchoseptica
Bordetella pertussis = test: as above; format: cell-based; conditions: Bordatella pertussis
Corynebacterium renale = test: as above; format: cell-based; conditions: C. renale compared with other sensitive organisms
Haemophilus parasuis = test: as above; format: cell-based; conditions: Hemophilus parasuis
Moraxella bovis = test: as above; format: cell-based
Pasteurella multocida = test: as above; format: cell-based
Streptococcus suis = test: as above; format: cell-based
S. aureus = test: Inhibitory spectrum, S. aureus; format: cell-based, Staphylococcus aureus
[5] = system: methicillin-resistant S. aureus (MRSA) strains; test: Additional analyses of the inhibitory spectrum; format: cell-based, Staphylococcus aureus; conditions: ten MRSA strains tested
[6] = system: vancomycin-resistant strains of Enterococcus faecalis and E. faecium; test: Additional analyses of the inhibitory spectrum; format: cell-based; conditions: remainder varying degrees of resistance
C. renale [7] = conditions: finally purified BacR1, 37° C., 5 h, A550
[8] = crude preparation, Rogolsky et al. paper; cited from earlier work
[9] = system: Corynebacterium renale ATCC 19412; test: Bactericidal assay of BacR1 (plate method)

BacR1: 26-mer proteinaceous bacteriocin of approximately 3.4 kilodaltons produced by S. aureus UT0007; peptide sequence SEQ ID No. 3 (LGGAATGVIGYISNQTCPTTACTRAC)
% Residual Activity ([1]; 4° C., 15 min, 640 AU/ml): 100% | % Residual Activity ([1]; 25° C., 15 min, 640 AU/ml): 100% | % Residual Activity ([1]; 37° C., 15 min, 640 AU/ml): 100% | % Residual Activity ([1]; -20° C., 15 min, finally purified BacR1 640 AU/ml): 100% | % Residual Activity ([1]; pH 3 to 11, room temperature, 1 h, 640 AU/ml): 100% | apparent average pI [2]: 7.7 | exposure time after which no viable cells were detected (C. renale [3]; BacR1 100 AU/ml): 120 min | mode of action (bactericidal vs bacteriostatic) (C. renale [3]; prolonged incubation, cells do not recover): bactericidal | bactericidal activity in SDS-PAGE gel overlay (C. renale [4]): possessed BacR1 activity | sensitivity to BacR1 (in words) (Bordetella brochoseptica): killed; also recorded: sensitive | sensitivity to BacR1 (in words) (Bordetella pertussis): sensitive | relative susceptibility (Corynebacterium renale): equally (and most) sensitive | sensitivity to BacR1 (in words) (Haemophilus parasuis): sensitive | relative susceptibility (Moraxella bovis): equally (and most) sensitive | sensitivity to BacR1 (in words) (Moraxella bovis; Moraxella bovis): especially sensitive | sensitivity to BacR1 (in words) (Pasteurella multocida): killed | sensitivity to BacR1 (in words) (Streptococcus suis): killed | sensitivity to BacR1 (in words) (S. aureus; S. aureus): killed | relative susceptibility (S. aureus; S. aureus compared with other sensitive organisms): susceptible, but required higher doses | sensitivity to BacR1 (in words) [5]: very sensitive | share of tested strains sensitive to BacR1 [6]: About 40% | MIC50 (concentration that caused a 50% inhibition of growth) (C. renale [7]): approximately 6 AU/ml | maximum specific activity [8]: 46 AU/mg | Specific Activity ([9]; purification stage: Ammonium Sulfate): 1259 AU/mg | Specific Activity ([9]; purification stage: C4 Reverse-Phase (1st cycle)): 16,642 AU/mg | Specific Activity ([9]; purification stage: C4 Reverse-Phase (2nd cycle), finally purified): 37,450 AU/mg | Specific Activity ([9]; purification stage: Cation Exchange): 6963 AU/mg | Specific Activity ([9]; purification stage: Supernatant (1 L)): 152 AU/mg
